{"source": "paper PMC12703733", "about": "“Probing Guanidino Pendant or Bridged Groups in Cyclic Antimicrobial Peptides Derived from Temporin L: A Strategy to Improve Efficacy against Gram-Negative Bacteria” (Journal of Medicinal Chemistry, 2025)", "key": {"A. baumannii ATCC 19606": {"system": "A. baumannii ATCC 19606", "test": "microbe, parasite or virus in culture", "type": "cell-based", "conditions": "ATCC 19606", "how_it_was_run": "(§1)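 Mid-log bacteria were diluted in Mueller Hinton broth to 2 × 10^6 cell/mL, exposed to compound and incubated at 37 °C. MIC values came from three identical readings across four independent experiments.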"}, "E. coli D21": {"system": "E. coli D21", "test": "microbe, parasite or virus in culture", "type": "cell-based", "conditions": "D21", "how_it_was_run": "as §1"}, "E. faecalis ATCC 29212": {"system": "E. faecalis ATCC 29212", "test": "microbe, parasite or virus in culture", "type": "cell-based", "conditions": "ATCC 29212", "how_it_was_run": "as §1"}, "P. aeruginosa ATCC 27853": {"system": "P. aeruginosa ATCC 27853", "test": "microbe, parasite or virus in culture", "type": "cell-based", "conditions": "ATCC 27853", "how_it_was_run": "as §1"}, "E. coli ATCC 25922": {"system": "E. coli ATCC 25922", "test": "microbe, parasite or virus in culture", "type": "cell-based", "conditions": "ATCC 25922", "how_it_was_run": "as §1"}, "B. megaterium BM11": {"system": "B. megaterium BM11", "test": "microbe, parasite or virus in culture", "type": "cell-based", "conditions": "BM11", "how_it_was_run": "as §1"}, "[1]": {"system": "S. epidermidis ATCC 12228", "test": "microbe, parasite or virus in culture", "type": "cell-based", "conditions": "ATCC 12228", "how_it_was_run": "as §1"}, "S. aureus ATCC 25923 [2]": {"system": "S. aureus ATCC 25923", "test": "microbe, parasite or virus in culture", "type": "cell-based", "conditions": "ATCC 25923", "how_it_was_run": "as §1"}, "S. agalactiae ATCC 27591": {"system": "S. agalactiae ATCC 27591", "test": "microbe, parasite or virus in culture", "type": "cell-based", "conditions": "ATCC 27591", "how_it_was_run": "as §1"}, "S. aureus ATCC 25923 [3]": {"system": "S. aureus ATCC 25923", "type": "cell-based", "description": "The ability of peptides to alter the bacterial membrane permeability of planktonic cells of S. aureus ATCC 25923 and P. aeruginosa ATCC 27853 was determined by the Sytox Green assay. Approximately 1 × 10^6 cells in 100 μL of PBS were combined with 1 μM Sytox Green in the dark for 5 min. The fluorescence intensity was monitored using a microplate reader (Infinite M200, Tecan), with excitation and emission at λ = 485 and 535 nm, respectively. Peptides were added (time = 0) at three different concentrations (i.e., 3.12, 6.25, and 12.5 μM). Increase in the fluorescence intensity is due to the binding of the dye to intracellular nucleic acids. Controls consisted of cells that were not exposed to the peptides. The values correspond to one representative experiment out of three independent experiments."}, "circular dichroism": {"test": "circular dichroism", "conditions": "water; pH ns; 25 °C; 150 uM"}, "[4]": {"type": "cell-based", "conditions": "Cell viability (%)", "description": "For the evaluation of peptides’ cytotoxicity, the human immortalized keratinocytes (HaCaT cells), purchased from AddexBio (San Diego, CA, USA), and BEAS-2B were used. HaCaT cells were cultured in Dulbecco’s modified Eagle’s medium supplemented with 4 mM glutamine (DMEM), 10% heat-inactivated fetal bovine serum (FBS), and 0.1 mg/mL of penicillin and streptomycin, at 37 °C and 5% CO2. BEAS-2B cells were cultured in RPMI, supplemented with 2 mM glutamine (DMEM), 10% heat-inactivated fetal bovine serum (FBS), 1 mM sodium pyruvate, and 0.1 mg/mL of penicillin and streptomycin, at 37 °C and 5% CO2. Cytotoxicity was tested in vitro using a colorimetric assay that relies on the intracellular reduction of the yellow 3-(4,5-dimethylthiazol-2-yl)-2,5-diphenyltetrazolium bromide salt (MTT) by mitochondrial dehydrogenases of metabolically active cells in formazan crystals (purple). About 4 × 10^4 HaCaT and BEAS-2B cells, suspended in DMEM supplemented with 2% FBS, were plated in triplicate wells of a 96-well microtiter plate. The plate was incubated overnight at 37 °C and 5% CO2. Then, the cells were treated with different concentrations of the peptide (from 100 to 3.12 μM) in a fresh serum-free medium for 2 h and for a longer time (24 h). Following peptide treatment, the medium was removed, and MTT (0.5 mg/mL) solution in Hank’s buffer (136 mM NaCl, 4.2 mM Na2HPO4, 4.4 mM KH2PO4, 5.4 mM KCl, 4.1 mM NaHCO3, pH 7.2, supplemented with 20 mM D-glucose) was added to each well of the plate, that was then incubated for 4 h at 37 °C and 5% CO2. The purple formazan crystals were dissolved using acidified 2-propanol and a microplate reader (Infinite M200; Tecan, Salzburg, Austria) was used to measure the absorbance of each well at 570 nm. The percentage of cell viability was calculated compared to the control, which consisted of cells without any peptide treatment (corresponding to 100% viability) and all data represent the mean of three independent experiments ± SEM."}, "[5]": {"type": "cell-based, human", "conditions": "human", "how_it_was_run": "(§2)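 Cells were plated at about 4 × 10^4/well in 2% FBS, then exposed to peptide at 100–3.12 μM in serum-free medium for 2 h or 24 h. Viability was measured by MTT reduction (0.5 mg/mL, 4 h, absorbance 570 nm) relative to untreated cells, as the mean ± SEM of three experiments.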"}, "[6]": {"system": "human keratinocytes (HaCaT cells)", "type": "cell-based", "conditions": "human, 24 h", "how_it_was_run": "as §2"}, "in vitro": {"test": "in vitro", "type": "in vitro ADME", "conditions": "isolated enzyme chymotrypsin, pH 7.8", "description": "Peptide stability was evaluated by modifying previously described procedures. , The assays were performed in human serum and in the presence of proteolytic enzymes such as trypsin and chymotrypsin. For human serum stability, 2 mM peptide stock solutions were prepared in water and mixed with human serum (from male AB plasma, USA origin, sterile-filtered, Merck/Sigma-Aldrich, USA) to obtain a final concentration of 200 μM [human plasma/stock solution (9:1, v/v)]. The mixtures were incubated at 37 ± 1 °C, and 50 μL aliquots were taken at predetermined time intervals (0, 1, 2, 4, 8, and 24 h). Protease activity was quenched by adding 100 μL of acetonitrile (MeCN). The resulting cloudy suspensions were cooled to 4 °C for 30 min and centrifugated at 12,000 rpm for 10 min to remove the serum proteins. Then, the supernatants were analyzed by analytical HPLC (Shimadzu Nexera Liquid Chromatograph LC-30AD) which was equipped with a Phenomenex Kinetex reversed-phase column (C18, 5 μm, 100 Å, 150 mm × 4.6 mm) with a flow rate of 1 mL/min using a gradient of MeCN (0.1% TFA) in water (0.1% TFA), from 10 to 70% over 15 min, and UV detection at 220 nm. For enzyme stability, each peptide peptide (200 μM) was incubated with trypsin (0.5 μM) in PBS 1× (pH 7.2) or with chymotrypsin (0.005 μM) in Tris–HCl (100 mM, pH 7.8). Samples (50 μL) were collected at 0, 1, 2, 4, and 24 h, quenched with 0.5% TFA in water, and analyzed by HPLC under chromatographic conditions as described above. All experiments were conducted in triplicate. The percentage of intact peptides at each time point was determined by integrating the corresponding HPLC peak areas."}}, "note": "Where two headings read alike, the source gives them in different places. Bridge positions count the residues as written; N and C are the ends. Square brackets hold non-standard residues; d marks the D form. Peptide text beside a SMILES is read from it. Phe(4-guanidino) = N=C(N)Nc1ccc(C[C@H](N)C(=O)O)cc1"}
{"smiles": "CC[C@H](C)[C@H](NC(=O)[C@H](CCCNC(=N)N)NC(=O)[C@H]1CCC(=O)NCCCC[C@H](NC(=O)[C@H](Cc2ccccc2)NC(=O)[C@H](Cc2c[nH]c3ccccc23)NC(=O)[C@@H]2CCCN2C(=O)[C@@H](NC(=O)[C@@H](N)Cc2ccc(NC(=N)N)cc2)C(C)C)C(=O)N[C@@H](CCCCN)C(=O)N[C@@H](Cc2ccccc2)C(=O)N[C@H](CC(C)C)C(=O)N1)C(=O)N[C@@H](CC(C)C)C(N)=O", "note": "[Peptide 6, (p-guanidino)FVPWF[KKFle]RIL] (H-[Phe(4-guanidino)]VPWFKKF[dL][dE]RIL-NH2; lactam 6-10)", "values": [{"measurement": "MIC", "setting": "A. baumannii ATCC 19606", "result": 3.12, "unit": "µM"}, {"measurement": "MIC", "setting": "E. coli D21", "result": 3.12, "unit": "µM"}, {"measurement": "MIC", "setting": "E. faecalis ATCC 29212", "result": 12.5, "unit": "µM"}, {"measurement": "MIC", "setting": "P. aeruginosa ATCC 27853", "result": 25, "unit": "µM"}, {"measurement": "MIC", "setting": "E. coli ATCC 25922", "result": 6.25, "unit": "µM"}, {"measurement": "MIC", "setting": "B. megaterium BM11", "result": 0.78, "unit": "µM"}, {"measurement": "MIC", "setting": "[1]", "result": 3.12, "unit": "µM"}, {"measurement": "MIC", "setting": "S. aureus ATCC 25923 [2]", "result": 25, "unit": "µM"}, {"measurement": "MIC", "setting": "S. agalactiae ATCC 27591", "result": 1.56, "unit": "µM"}, {"measurement": "membrane permeabilization, Sytox Green fluorescence (in words)", "setting": "S. aureus ATCC 25923 [3]", "result": "lower effect"}, {"measurement": "helicity", "setting": "circular dichroism", "result": 16, "unit": "%"}, {"measurement": "viability at 2 h, 3.12 µM", "setting": "[4]", "result": 111, "unit": "%"}, {"measurement": "viability at 2 h, 6.25 µM", "setting": "[4]", "result": 119, "unit": "%"}, {"measurement": "viability at 2 h, 12.5 µM", "setting": "[4]", "result": 114, "unit": "%"}, {"measurement": "viability at 2 h, 25 µM", "setting": "[4]", "result": 100, "unit": "%"}, {"measurement": "viability at 2 h, 50 µM", "setting": "[4]", "result": 30, "unit": "%"}, {"measurement": "viability at 24 h, 3.12 µM", "setting": "[4]", "result": 104, "unit": "%"}, {"measurement": "viability at 24 h, 6.25 µM", "setting": "[4]", "result": 111, "unit": "%"}, {"measurement": "viability at 24 h, 12.5 µM", "setting": "[4]", "result": 111, "unit": "%"}, {"measurement": "viability at 24 h, 25 µM", "setting": "[4]", "result": 107, "unit": "%"}, {"measurement": "viability at 24 h, 50 µM", "setting": "[4]", "result": 33, "unit": "%"}, {"measurement": "viability at 24 h, 100 µM", "setting": "[4]", "result": 4, "unit": "%"}, {"measurement": "CC50 at 24 h", "setting": "[5]; CC50", "result": "> 50", "unit": "µM"}, {"measurement": "viability at 2 h, 3.12 µM", "setting": "[5]; Cell viability (%)", "result": 102, "unit": "%"}, {"measurement": "viability at 2 h, 6.25 µM", "setting": "[5]; Cell viability (%)", "result": 101, "unit": "%"}, {"measurement": "viability at 2 h, 12.5 µM", "setting": "[5]; Cell viability (%)", "result": 101, "unit": "%"}, {"measurement": "viability at 2 h, 25 µM", "setting": "[5]; Cell viability (%)", "result": 101, "unit": "%"}, {"measurement": "viability at 2 h, 100 µM", "setting": "[5]; Cell viability (%)", "result": 13, "unit": "%"}, {"measurement": "viability at 24 h, 3.12 µM", "setting": "[5]; Cell viability (%)", "result": "100 ± 2", "unit": "%"}, {"measurement": "viability at 24 h, 6.25 µM", "setting": "[5]; Cell viability (%)", "result": "93 ± 2", "unit": "%"}, {"measurement": "viability at 24 h, 12.5 µM", "setting": "[5]; Cell viability (%)", "result": "86 ± 4", "unit": "%"}, {"measurement": "viability at 24 h, 25 µM", "setting": "[5]; Cell viability (%)", "result": "86 ± 2", "unit": "%"}, {"measurement": "viability at 24 h, 50 µM", "setting": "[5]; Cell viability (%)", "result": "> 70", "unit": "%"}, {"measurement": "viability at 24 h, 100 µM", "setting": "[5]; Cell viability (%)", "result": "2 ± 1", "unit": "%"}, {"measurement": "CC50", "setting": "[6]", "result": 59.6, "unit": "µM"}, {"measurement": "Cell viability (%)", "setting": "[6]; 50 µM", "result": "81 ± 4", "unit": "%"}, {"measurement": "remaining at 4 h, 200 μM", "setting": "in vitro", "result": "~20", "unit": "%"}]}
